Read-outs that look alike come from different tables or passages of the source.
Key:
Assay type in all cases: cell-based, human
[1] = system: Target C; test: RT-qPCR splicing assay panel, Target C canonical junction (CJ) mRNA; details: Homo sapiens
Experimental: (§1) The expression of a target mRNA was measured by detecting the formation of an exon-exon junction in the canonical transcript (CJ). A compound mediated exon-inclusion event was detected by observing an increase in formation of a new junction with an alternative exon (AJ). Real-time qPCR assays were used to detect these splicing switches and interrogate the potency of various compounds towards different target genes. A high-throughput real time quantitative PCR (RT-qPCR) assay was developed to measure these two isoforms of the mRNA (CJ and AJ) for exemplary genes, such as HTT, SMN2, and MYB, together with a control housekeeping gene, GAPDH or GUSB or PPIA, used for normalization. Briefly, the A673 or K562 cell line was treated with various compounds described herein (e.g., compounds of Formula (I)). After treatment, the levels of the HTT, MYB, or SMN2 mRNA targets were determined from each sample of cell lysate by cDNA synthesis followed by qPCR.
(§2) The A673 cell line was cultured in DMEM with 10% FBS. Cells were diluted with full growth media and plated in a 96-well plate (15,000 cells in 100 ul media per well). The plate was incubated at 37° C. with 5% CO2 for 24 hours to allow cells to adhere. An 11-point 3-fold serial dilution of the compounds was made in DMSO then diluted in media in an intermediate plate. Compounds were transferred from the intermediate plate to the cell plate with the top dose at a final concentration of 10 uM in the well. Final DMSO concentration was kept at or below 0.25%. The cell plate was returned to the incubator at 37° C. with 5% CO2 for an additional 24 hours.
(§3) The K562 cell line was cultured in IMDM with 10% FBS. For K562, cells were diluted with full growth media and plated in either a 96-well plate (50,000 cells in 50 uL media per well) or a 384-well plate (8,000-40,000 cells in 45 uL media per well). An 11-point 3-fold serial dilution of the compounds were made in DMSO then diluted in media in an intermediate plate. Compound was transferred from the intermediate plate to the cell plate with the top dose at a final concentration of 10 uM in the well. Final DMSO concentration was kept at or below 0.25%. Final volume was 100 uL for 96-well plate and 50 uL for 384-well plate. The cell plate was then placed in an incubator at 37° C. with 5% CO2 for 24 hours.
(§4) The cells were then gently washed with 50 uL-100 uL cold PBS before proceeding to addition of lysis buffer. 30 uL-50 uL of room temperature lysis buffer with DNAse I (and optionally RNAsin) was added to each well. Cells were shaken/mixed thoroughly at room temperature for 5-10 minutes for lysis to take place and then 3 uL-5 uL of room temperature stop solution was added and wells were shaken/mixed again. After 2-5 minutes, the cell lysate plate was transferred to ice for RT-qPCR reaction setup. The lysates could also be frozen at −80° C. for later use.
(§5) In some cases, a direct lysis buffer was used. An appropriate volume of 3× lysis buffer (10 mM Tris, 150 mM NaCl, 1.5%-2.5% Igepal and 0.1-1 U/uL RNAsin, pH 7.4) was directly added to either K562 or A673 cells in media and mixed by pipetting 3 times. The plates were then incubated at room temperature with shaking/rocking for 20-50 minutes to allow for lysis to take place. After this time, the cell lysate plate was transferred to ice to set up for the RT-qPCR reactions. The lysates could also be frozen at −80° C. for later use.
(§6) To set up 10 uL RT-qPCR reactions, cell lysates were transferred to 384-well qPCR plates containing the master mix according to the table below. The plates were sealed, gently vortexed, and spun down before the run. The volumes were adjusted accordingly in some instances where the reaction was carried in 20 uL. The table below summarizes the components of the RT-qPCR reactions:
(§7) The RT-qPCR reaction was performed using a QuantStudio (ThermoFisher) under the following fast cycling conditions.

[2] = system: MYB mRNA; test: RT-qPCR splicing assay, MYB canonical junction (CJ) and alternative junction (AJ) mRNA; details: Homo sapiens; for AC50: increase in MYB alternative junction (AJ) mRNA, read-out: MYB AJ AC50
Experimental: as §1
(§8) • Cells-to-CT 1-step kit: ThermoFisher A25602, Cells-to-CT lysis reagent: ThermoFisher 4391851C, TaqMan™ Fast Virus 1-Step Master Mix: ThermoFisher 4444436 • GAPDH: VIC-PL, ThermoFisher 4326317E (Assay: Hs99999905_m1)—used for K562/suspension cell lines • GUSB: VIC-PL, ThermoFisher 4326320E (Assay: Hs99999908_m1)—used for K562/suspension cell lines • PPIA: VIC-PL, ThermoFisher 4326316E (Assay: Hs99999904_m1)—used for A673/adherent cell lines
as §2, §3, §4, §5

[3] = system: SMN2 mRNA; test: RT-qPCR splicing assay, SMN2 canonical junction (CJ) mRNA; details: Homo sapiens
Experimental: as §1, §2, §3, §4, §5, §6, §7

[4] = system: HTT mRNA; test: RT-qPCR splicing assay, HTT canonical junction (CJ) and alternative junction (AJ) mRNA; details: Homo sapiens; for AC50: increase in HTT alternative junction (AJ) mRNA, read-out: HTT AJ AC50
Experimental: as §1, §8, §2, §3, §4, §5

[5] = canonical junction qPCR panel, Table 5, read-out: Target C (decrease in CJ mRNA levels, IC50)
[6] = canonical junction qPCR panel, Table 5, read-out: MYB (decrease in CJ mRNA levels, IC50)
[7] = decrease in MYB canonical junction (CJ) mRNA, RT-qPCR, read-out: MYB CJ IC50
[8] = canonical junction qPCR panel, Table 5, read-out: SMN2 (decrease in CJ mRNA levels, IC50)
[9] = decrease in HTT canonical junction (CJ) mRNA, RT-qPCR, read-out: HTT CJ IC50
[10] = canonical junction qPCR panel, Table 5, read-out: HTT (decrease in CJ mRNA levels, IC50)
[11] = Table 5 panel, canonical junction qPCR, compound concentration having 50% response in CJ decrease, read-out: Target C IC50 (decrease in CJ mRNA levels)
[12] = Table 5 panel, canonical junction qPCR, compound concentration having 50% response in CJ decrease, read-out: MYB IC50 (decrease in CJ mRNA levels)
[13] = Table 5 panel, canonical junction qPCR, compound concentration having 50% response in CJ decrease, read-out: SMN2 IC50 (decrease in CJ mRNA levels)
[14] = Table 5 panel, canonical junction qPCR, compound concentration having 50% response in CJ decrease, read-out: HTT IC50 (decrease in CJ mRNA levels)

Compound | IC50 [1, 5] [nM] | IC50 [2, 6] [nM] | IC50 [2, 7] [nM] | AC50 ([2]; RT-qPCR) [nM] | IC50 [3, 8] [nM] | IC50 [4, 9] [nM] | AC50 ([4]; RT-qPCR) [nM] | IC50 [4, 10] [nM] | IC50 [1, 11] [nM] | IC50 [2, 12] [nM] | IC50 [3, 13] [nM] | IC50 [4, 14] [nM]
Cn1cc2cc(-c3ccc4c(=O)n(C5CCNCC5)ccc4n3)c(O)c(C#N)c2n1 [Compound 1283] | 1000 to 10000 | 100 to 1000 | 100 to 1000 | 100 to 1000 | < 100 | 100 to 1000 | 100 to 1000 | 100 to 1000 | – | – | – | –
Cc1cn2nc(-c3ccc4nc(N5CCNC6(CC6)C5)[nH]c(=O)c4c3)cc(C)c2n1 [Compound 190] | – | – | 100 to 1000 | 100 to 1000 | – | 100 to 1000 | 100 to 1000 | – | 100 to 1000 | 100 to 1000 | 100 to 1000 | 100 to 1000
CN1CCN(c2ccc3nc(-c4ccc5nn(C)cc5c4)[nH]c(=O)c3c2)CC1 [Compound 108] | – | – | > 10000 | > 10000 | – | > 10000 | > 10000 | – | 1000 to 10000 | > 10000 | 1000 to 10000 | > 10000
Cc1cn2cc(-c3ccc4nc(NC5CCNCC5)[nH]c(=O)c4c3)cc(F)c2n1 [Compound 238] | – | – | > 10000 | > 10000 | – | > 10000 | > 10000 | – | > 10000 | > 10000 | > 10000 | > 10000
Cc1cn2cc(-c3ccc4nc(N5CCNC6(CC6)C5)[nH]c(=O)c4c3)cc(F)c2n1 [Compound 191] | – | – | > 10000 | > 10000 | – | > 10000 | > 10000 | – | > 10000 | > 10000 | > 10000 | > 10000
Cc1cn2cc(-c3cc(F)c4c(=O)n([C@H]5CC[C@H](N(C)C)CC5)ccc4c3)cc(F)c2n1 [Compound 654] | – | – | < 100 | < 100 | – | < 100 | < 100 | – | 100 to 1000 | < 100 | < 100 | < 100
Cc1cn2cc(-c3nc4ccc(N5CCN(C)CC5)cc4c(=O)[nH]3)cc(F)c2n1 [Compound 111] | – | – | 1000 to 10000 | 1000 to 10000 | – | 1000 to 10000 | 1000 to 10000 | – | 1000 to 10000 | 1000 to 10000 | 100 to 1000 | 1000 to 10000
Cc1cn2nc(-c3ccc4c(c3)CCN(C3CCNC(C)C3)C4=O)cc(C)c2n1 (stereo not drawn) [Compound 327] | – | – | 1000 to 10000 | 1000 to 10000 | – | 1000 to 10000 | 1000 to 10000 | – | 1000 to 10000 | 1000 to 10000 | 1000 to 10000 | 1000 to 10000
Cc1cn2cc(-c3nc4ccc(N5CCNCC5)cc4c(=O)[nH]3)cc(F)c2n1 [Compound 115] | – | – | 100 to 1000 | 1000 to 10000 | – | > 10000 | > 10000 | – | > 10000 | 1000 to 10000 | < 100 | > 10000
Cc1cc(-c2ccc3nc(N4CCNCC4)[nH]c(=O)c3c2)cc2cn(C)nc12 [Compound 166] | – | – | 1000 to 10000 | 1000 to 10000 | – | 1000 to 10000 | 1000 to 10000 | – | 1000 to 10000 | 1000 to 10000 | 1000 to 10000 | 1000 to 10000
Cc1cc(-c2nc3ccc(N(C)C4CCN(C)CC4)cc3c(=O)[nH]2)cc2cn(C)nc12 [Compound 239] | – | – | 1000 to 10000 | > 10000 | – | > 10000 | > 10000 | – | > 10000 | > 10000 | 1000 to 10000 | > 10000
Cc1cn2nc(-c3ccc4c(=O)n([C@@H]5CCNC6(CC6)C5)ncc4n3)cc(C)c2n1 [Compound 1298] | 100 to 1000 | 100 to 1000 | 100 to 1000 | 100 to 1000 | < 100 | < 100 | < 100 | < 100 | – | – | – | –
Cc1cn2cc(-c3ccc4c(=O)n(C5CCNC(C)C5)cnc4c3)cc(F)c2n1 (stereo not drawn) [Compound 323] | – | – | 100 to 1000 | 100 to 1000 | – | 100 to 1000 | 100 to 1000 | – | 100 to 1000 | 100 to 1000 | < 100 | 100 to 1000
Cc1cn2nc(-c3ccc4nc(NC5CCNCC5)[nH]c(=O)c4c3)cc(C)c2n1 [Compound 192] | – | – | > 10000 | > 10000 | – | > 10000 | > 10000 | – | > 10000 | > 10000 | > 10000 | > 10000
Cc1cc(-c2ccc3nc(NC4CCN(C)CC4)[nH]c(=O)c3c2)cc2cn(C)nc12 [Compound 167] | – | – | > 10000 | > 10000 | – | > 10000 | > 10000 | – | > 10000 | > 10000 | > 10000 | > 10000
Cc1cc(-c2nc3ccc(N(C)C4CCNCC4)cc3c(=O)[nH]2)cc2cn(C)nc12 [Compound 121, 2-(2,7-dimethyl-2H-indazol-5-yl)-6-(methyl(piperidin-4-yl)amino)quinazolin-4(3H)-one] | – | – | 1000 to 10000 | > 10000 | – | > 10000 | > 10000 | – | > 10000 | > 10000 | 100 to 1000 | 1000 to 10000
Cc1cn2cc(-c3cc(F)c4c(=O)n([C@H]5CC[C@@H](N(C)C)CC5)ccc4c3)cc(F)c2n1 [Compound 656] | – | – | < 100 | < 100 | – | 100 to 1000 | 100 to 1000 | – | 100 to 1000 | < 100 | < 100 | 100 to 1000
Cc1cn2nc(-c3cc(F)c4c(=O)n(C56CCC(N)(CC5)C6)ccc4c3)cc(C)c2n1 [Compound 655] | – | – | 100 to 1000 | < 100 | – | 1000 to 10000 | 100 to 1000 | – | 1000 to 10000 | < 100 | < 100 | 100 to 1000

— patent publication US20250332173A1, “COMPOUNDS AND METHODS FOR MODULATING NUCLEIC ACID SPLICING” (REMIX THERAPEUTICS INC., priority 2021, published 2025)
